We go through two compounds from patent US20160184335A1, “ANTITUMOR AGENT” (KAKUI, CO., LTD., priority 2012, published 2016).

Read-outs that look alike come from different tables or passages of the source.

The test system of data set [1] is HeLa (human cervical cancer-derived cell line). As to the kind of experiment: XTT assay, effect on cell survival (HeLa). It is filed as cell-based. The source says: (§1) The presence or the absence of the selective cytotoxic activity of the test substance (cellobiose) was examined on various established cell lines.
(§2) Cell species: HeLa (human cervical cancer-derived cell line), HaCaT (human-derived immortalized keratinocyte) and Hep-G2 (human liver cancer-derived cell line)
(§3) (Thawing and Passage Culture of Cells) • (1) HeLa, HaCaT, and Hep-G2 cells were thawed and then cultured in various specialized media. • (2) Cells were passaged 2 to 3 times. • (3) Cells that had recovered their growth capacity were used for the test. […]
On the technique in general: Formazan colour is commonly taken as a measure of viable cells.

Data set [2] has as its system DMBA-induced breast cancer. It is filed as in vivo. The following applies: for changes in body weight: vs control; for general conditions: deaths: 15 rats; for day from which development of tumors was confirmed: control: day 35. Here is the method:
The antitumor effects of cellobiose were examined using the rat DMBA-induced breast cancer model. Specifically, 7-week-old female rats were grouped using body weight as an index, and then 7,12-dimethylbenz[a]anthracene (DMBA) (20 mg/mL/rat) was forcibly administered orally. Two doses of the test substance (4 and 40 mg/kg/day) were forcibly administered orally once a day from the day after grouping for 12 consecutive weeks.
Fifty-two 6-week-old female rats, Crl: CD (SD) (SPF), were purchased from Charles River Laboratories, Japan Inc. on Mar. 28, 2012 (Number of rats ordered: 50).
Animals, for which no abnormalities had been confirmed as a result of observation of general conditions during the quarantine and conditioning periods, were selected and then grouped by the stratified continuous randomization method using body weight as an index based on the following table of group composition (Table 1). The remaining animals were excluded from the test groups on the day of grouping and then disposed of after excessive euthanization with ether.
DMBA was weighed to the required amount using an electronic even Sartorius Laboratory balance (SARTORIUS K.K.). The weighed DMBA was added to a beaker containing sesame oil, and then the solution was stirred using a mighty magnetic stirrer (Koike precision instruments) until the DMBA was completely dissolved. After dissolution, the solution was transferred to a volumetric graduated cylinder and then diluted to a concentration of 20 mg/mL. Upon preparation, countermeasures were taken against chemical hazards to avoid inhalation and adhesion to skin by wearing masks, safety eyeglasses, and gloves. Preparation was performed before use. Any carcinogen remaining after administration was treated as medical waste.
The carcinogen was administered to each animal after grouping. Specifically, the carcinogen was forcibly administered orally at a dosage of 1 mL/animal using sonde for oral administration (disposable sonde for oral administration, FUCHIGAMI) and glass syringes (disposable syringes, TERUMO Corporation). Administration was performed using masks, safety eyeglasses and gloves in order to avoid inhalation and adhesion to skin.
Next, the test substance was weighed to the required amount using an electronic Sartorius Analytic balance (SARTORIUS K.K.), and then dissolved in the medium. The resultant was transferred to a volumetric graduated cylinder, and then diluted to concentrations of 0.8 mg/mL and 8.0 mg/mL. Preparation was performed before use. The solution of the test substance (to be administered) that had remained after administration was diluted with a large volume of tap water and then discarded.
Administration of the test substance began the day after grouping (designated as day 1). The test substance was forcibly administered orally once a day for 12 consecutive weeks.
Upon administration, the test substance solution was forcibly administered orally at 5 mL/kg/day using sonde for oral administration (disposable sonde for oral administration, FUCHIGAMI) and glass syringes (disposable syringes, TERUMO Corporation) according to the table of group composition. The fluid volume administered was calculated based on the body weight measured on the day closest to the date of administration.
After administration of the carcinogen, the general conditions were observed every day. Body weight was measured once a week.
When the development of tumors was confirmed, the number of tumors developed in each animal was measured, and then the tumor volume estimate (mm^3) of each tumor was calculated once a week. In addition, the tumor volume estimate (mm^3) of each tumor was found by shaving the hair around the relevant tumor, measuring the tumor size (major axis “a” and minor axis “b” (mm)) using a vernier caliper, calculating according to the following formula, and then finding the sum of tumor volume estimates of the tumors.
Tumor volume estimate (mm^3) of each tumor=0.5 ×a×b^2 […]

The test system of data set [3] is HaCaT (human-derived immortalized keratinocyte). As to the kind of experiment: XTT assay, effect on cell survival (HaCaT). It is filed as cell-based.
Excerpt: as §1, §2, §3

Data set [4] relates to Hep-G2 (human liver cancer-derived cell line). As to the kind of experiment: XTT assay, effect on cell survival (Hep-G2). The data set is classed as cell-based.
Excerpt: as §1, §2, §3

Data set [5] has as its system HeLa cells. Put plainly: Confirmation of the performance of cell proliferation kit (XTT) with HeLa. It is filed as cell-based, human. To be noted: 500 μM, 3 hours. Here is the method:
(Confirmation of the Performance of Cell Proliferation Kit (XTT)) • (1) HeLa cells were seeded in 16 wells of a 96-well plate at 1×10^4 cells/100 μL/well. • (2) Cells were cultured for 24 hours in a CO2 incubator. • (3) Dexamethasone was added at […] concentrations of 0 (control), 10, 100, and 500 μM (N=4). • (4) After addition, cells were cultured for 3 hours in the CO2 incubator. • (5) 50 μL of an XTT reagent was added. • (6) After addition, cells were cultured for 3 hours in the CO2 incubator. • (7) Absorbance was measured at 450 nm to 500 nm (ref.: 630 nm to 690 nm).

[6] abbreviates: any concentration (0.001-10 mg/mL), vs cells before addition.

Take `O=C[C@H](O)[C@@H](O)[C@H](O[C@@H]1O[C@H](CO)[C@@H](O)[C@H](O)[C@H]1O)[C@H](O)CO` [cellobiose]: the “change in survival rate compared to the control” value in data set [1] (10 mg/mL, 3 hours, XTT) is recorded as “almost no change in survival rate”; in data set [3] (10 mg/mL, 3 hours, XTT), “almost no change in survival rate”. Further, the “dead cells or cell morphological changes (photomicrographs)” value is on record as “no influence of other factors such as an increase in dead cells or cell morphological changes” in data set [1] (setting [6]); “no influence of other factors such as an increase in dead cells or cell morphological changes” in data set [3] (setting [6]); “no influence of other factors such as an increase in dead cells or cell morphological changes” in data set [4] (Hep-G2, any concentration (0.001-10 mg/mL), vs cells before addition). The “effect on development of breast cancer induced by DMBA (overall conclusion)” value in data set [2] (4 and 40 mg/kg/day oral, 12 weeks) is given as “suppresses the development of breast cancer that is induced by carcinogenic DMBA”. Moreover, the “changes in body weight” value is on record as “very similar changes to the control group” in data set [2] (high-dose group 40 mg/kg/day oral once a day, 12 weeks) and “very similar changes to the control group” in data set [2] (low-dose group 4 mg/kg/day oral once a day, 12 weeks). The “general conditions: deaths” value in data set [2] (high-dose group 40 mg/kg/day oral) is “one death was confirmed on day 76”; in data set [2] (low-dose group 4 mg/kg/day oral), “one death was confirmed on day 4”. For the same compound, the “day from which development of tumors was confirmed” value in data set [2] (high-dose group 40 mg/kg/day) and in data set [2] (low-dose group 4 mg/kg/day) was 49 days throughout. In addition, the “number of animals having developed tumors” value in data set [2] (high-dose group 40 mg/kg/day, day 49) is 2; in data set [2] (high-dose group 40 mg/kg/day, day 84), 11; in data set [2] (high-dose group 40 mg/kg/day, until day 42) it was “no development of tumors was confirmed until day 42”; in data set [2] (low-dose group 4 mg/kg/day, day 49), 4; in data set [2] (low-dose group 4 mg/kg/day, day 84), 11; in data set [2] (low-dose group 4 mg/kg/day, until day 42), “no development of tumors was confirmed until day 42”. Further, the “tumor volume estimate vs control” value in data set [2] (high-dose group 40 mg/kg/day, days 42 and 49) was “significantly lower than those of the control group”; in data set [2] (low-dose group 4 mg/kg/day, day 42), “significantly lower than those of the control group”. Further, the “wet weight of tumor vs control” value in data set [2] (low-dose group 4 mg/kg/day, autopsy after 12 weeks) is “very similar to those of the control group”. For the same compound, the “decrease in survival rate (maximum)” value in data set [4] (Hep-G2, high concentration of test substance, 3 hours, XTT) was roughly 15%.
In the case of `C[C@@H]1C[C@H]2[C@@H]3CCC4=CC(=O)C=C[C@]4(C)[C@@]3(F)[C@@H](O)C[C@]2(C)[C@@]1(O)C(=O)CO` [dexamethasone], in data set [5], the “decrease in survival rate” value is “about 40%”.
